A word on the EC50: it is the concentration at which the effect is half-maximal.

The subject of this assay is endogenous cellular STAT1 (phosphorylated at Tyr701) in NCI-H1373 cells. Put plainly: Phospho-STAT1 (Tyr701) LANCE Ultra TR-FRET Detection Assay. Particulars: Homo sapiens, NCI-H1373, 48 h, phospho-STAT1 (Tyr701) induction, read-out: NH1373 pSTAT1 EC50. The format is cell-based.

For `Nc1cc(-c2cc3ccn(CCC[C@H](COC(F)F)Nc4cn[nH]c(=O)c4C(F)(F)F)c(=O)c3cc2F)cnc1C(F)(F)F` [Example 400, (R)-6-(5-amino-6-(trifluoromethyl)pyridin-3-yl)-2-(5-(difluoromethoxy)-4-((6-oxo-5-(trifluoromethyl)-1,6-dihydropyridazin-4-yl)amino)pentyl)-7-fluoroisoquinolin-1(2H)-one], the EC50 was 56.8 nM.

For `CC[C@@H](CCCn1ccc2cc(-c3cnc(C(F)(F)F)c(N)n3)c(F)c(F)c2c1=O)Nc1cn[nH]c(=O)c1C(F)(F)F` [Example 362, (S)-6-(6-amino-5-(trifluoromethyl)pyrazin-2-yl)-7,8-difluoro-2-(4-((6-oxo-5-(trifluoromethyl)-1,6-dihydropyridazin-4-yl)amino)hexyl)isoquinolin-1(2H)-one], the EC50 was 15.7 nM.

Regarding `Nc1nc(-c2cc3ccn(CCC[C@H](COC(F)F)Nc4cn[nH]c(=O)c4C(F)(F)F)c(=O)c3cc2F)cnc1C(F)(F)F` [Example 416, (R)-6-(6-amino-5-(trifluoromethyl)pyrazin-2-yl)-2-(5-(difluoromethoxy)-4-((6-oxo-5-(trifluoromethyl)-1,6-dihydropyridazin-4-yl)amino)pentyl)-7-fluoroisoquinolin-1(2H)-one], the EC50 was determined as 6.78 nM. The same measure for `C[C@@H](CCCn1ccc2cc(-c3ncc(F)c(N)n3)c(F)cc2c1=O)Nc1cn[nH]c(=O)c1C(F)(F)F` [Example 103, 6-(4-amino-5-fluoro-pyrimidin-2-yl)-7-fluoro-2-[(4S)-4-[[6-oxo-5-(trifluoromethyl)-1H-pyridazin-4-yl]amino]pentyl]isoquinolin-1-one]: 39.8 nM. Next, `Nc1nc(-c2cc3ccn(CC[C@H]4CC[C@@H]4Nc4cn[nH]c(=O)c4C(F)(F)F)c(=O)c3cc2F)ncc1C(F)(F)F` [Example 123, 6-(4-amino-5-(trifluoromethyl)pyrimidin-2-yl)-7-fluoro-2-(2-((1R,2S)-2-((6-oxo-5-(trifluoromethyl)-1,6-dihydropyridazin-4-yl)amino)cyclobutyl)ethyl)isoquinolin-1(2H)-one]: 6.29 nM; `C[C@@H](CCCn1ccc2cc(-c3ncc4ccsc4n3)c(F)cc2c1=O)Nc1cn[nH]c(=O)c1C(F)(F)F` [Example 292, (S)-7-fluoro-2-(4-((6-oxo-5-(trifluoromethyl)-1,6-dihydropyridazin-4-yl)amino)pentyl)-6-(thieno[2,3-d]pyrimidin-2-yl)isoquinolin-1(2H)-one]: 16 nM. The same measure for `COc1cnc(-c2cc3ncn(CCC[C@H](COC(F)F)Nc4cn[nH]c(=O)c4C(F)(F)F)c(=O)c3cc2F)nc1N` [Example 393, (R)-7-(4-amino-5-methoxypyrimidin-2-yl)-3-(5-(difluoromethoxy)-4-((6-oxo-5-(trifluoromethyl)-1,6-dihydropyridazin-4-yl)amino)pentyl)-6-fluoroquinazolin-4(3H)-one]: 22.7 nM. `O=c1[nH]ncc(N[C@H]2CCC[C@@H](Cn3ccc4nc(-c5ccc(C(F)(F)F)cn5)ccc4c3=O)C2)c1C(F)(F)F` [Example 273, 6-(((1R,3S)-3-((6-oxo-5-(trifluoromethyl)-1,6-dihydropyridazin-4-yl)amino)cyclohexyl)methyl)-2-(5-(trifluoromethyl)pyridin-2-yl)-1,6-naphthyridin-5(6H)-one]: the EC50 was found to be 10000 nM. `C[C@@H](CCCn1ccc2cc(-c3ncc(N4CC(O)(C(F)(F)F)C4)cn3)c(F)cc2c1=O)Nc1cn[nH]c(=O)c1C(F)(F)F` [Example 69, 7-fluoro-6-[5-[3-hydroxy-3-(trifluoromethyl)azetidin-1-yl]pyrimidin-2-yl]-2-[(4S)-4-[[6-oxo-5-(trifluoromethyl)-1H-pyridazin-4-yl]amino]pentyl]isoquinolin-1-one]: the EC50 amounted to 148 nM. Turning to `O=c1[nH]ncc(N2C[C@@H](F)C[C@H]2CCCn2ccc3cc(-c4ncc(C(F)(F)F)cn4)c(F)cc3c2=O)c1C(F)(F)F` [Example 141, 7-fluoro-2-[3-[(2R,4S)-4-fluoro-1-[6-oxo-5-(trifluoromethyl)-1H-pyridazin-4-yl]pyrrolidin-2-yl]propyl]-6-[5-(trifluoromethyl)pyrimidin-2-yl]isoquinolin-1-one], the EC50 is 16.2 nM. Next, `Nc1nc(-c2cc3ncn(CCC[C@@H](Nc4cn[nH]c(=O)c4C(F)(F)F)C4CC4)c(=O)c3cc2F)ncc1OC(F)F` [Example 472, 7-[4-amino-5-(difluoromethoxy)pyrimidin-2-yl]-3-[(4R)-4-cyclopropyl-4-[[6-oxo-5-(trifluoromethyl)-1H-pyridazin-4-yl]amino]butyl]-6-fluoro-quinazolin-4-one]: 51.6 nM.

In the case of `CC(C)(O)c1cnc(-c2cc3ccn(C[C@@H]4CCC[C@H](Nc5cn[nH]c(=O)c5C(F)(F)F)C4)c(=O)c3cc2F)cn1` [Example 267, 7-fluoro-6-(5-(2-hydroxypropan-2-yl)pyrazin-2-yl)-2-(((1R,3S)-3-((6-oxo-5-(trifluoromethyl)-1,6-dihydropyridazin-4-yl)amino)cyclohexyl)methyl)isoquinolin-1(2H)-one], the EC50 worked out at 80.2 nM. The same measure for `O=c1[nH]ncc(N[C@H](CCCn2ccc3cc(-c4ncc(C(F)(F)F)s4)c(F)cc3c2=O)COC(F)F)c1C(F)(F)F` [Example 396, (R)-2-(5-(difluoromethoxy)-4-((6-oxo-5-(trifluoromethyl)-1,6-dihydropyridazin-4-yl)amino)pentyl)-7-fluoro-6-(5-(trifluoromethyl)thiazol-2-yl)isoquinolin-1(2H)-one]: 48.8 nM. The same measure for `Nc1nc(-c2cc3ncn(C[C@@H]4CCC[C@H](Nc5cn[nH]c(=O)c5C(F)(F)F)C4)c(=O)c3cc2F)cnc1C(F)(F)F` [Example 254, 7-(6-amino-5-(trifluoromethyl)pyrazin-2-yl)-6-fluoro-3-(((1R,3S)-3-((6-oxo-5-(trifluoromethyl)-1,6-dihydropyridazin-4-yl)amino)cyclohexyl)methyl)quinazolin-4(3H)-one]: 31.9 nM; for `C[C@@H](CCCn1ccc2cc(-c3nccc(C(F)F)n3)c(F)cc2c1=O)Nc1cn[nH]c(=O)c1C(F)(F)F` [Example 197, (S)-6-(4-(difluoromethyl)pyrimidin-2-yl)-7-fluoro-2-(4-((6-oxo-5-(trifluoromethyl)-1,6-dihydropyridazin-4-yl)amino)pentyl)isoquinolin-1(2H)-one]: 638 nM. Next, `O=c1[nH]ncc(N[C@H](CCCn2cnc3cc(-c4ncc(Cl)cn4)c(F)cc3c2=O)COC(F)F)c1C(F)(F)F` [Example 394, (R)-7-(5-chloropyrimidin-2-yl)-3-(5-(difluoromethoxy)-4-((6-oxo-5-(trifluoromethyl)-1,6-dihydropyridazin-4-yl)amino)pentyl)-6-fluoroquinazolin-4(3H)-one]: 1.22 nM.

For `O=c1[nH]ncc(N[C@H]2CCC[C@@H]2CCn2cnc3cc(-c4ncc(Cl)cn4)c(F)cc3c2=O)c1C(F)(F)F` [Example 448, 7-(5-chloropyrimidin-2-yl)-6-fluoro-3-(2-((1R,2S)-2-((6-oxo-5-(trifluoromethyl)-1,6-dihydropyridazin-4-yl)amino)cyclopentyl)ethyl)quinazolin-4(3H)-one], the EC50 is 6.82 nM. Next, `COc1cnc(-c2cc3ncn(CCC[C@H](C)Nc4cn[nH]c(=O)c4C(F)(F)F)c(=O)c3cc2F)nc1N1CC(C#N)C1` [Example 209]: 41.2 nM; `COc1cnc(-c2cc3ncn(CCC[C@H](C)Nc4cn[nH]c(=O)c4C(F)(F)F)c(=O)c3cc2F)nc1N1CCC1` [Example 188, (S)-7-(4-(azetidin-1-yl)-5-methoxypyrimidin-2-yl)-6-fluoro-3-(4-((6-oxo-5-(trifluoromethyl)-1,6-dihydropyridazin-4-yl)amino)pentyl)quinazolin-4(3H)-one]: 42 nM; `C[C@@H](CCCn1cnc2cc(-c3ncc(S(C)(=O)=O)cn3)c(F)cc2c1=O)Nc1cn[nH]c(=O)c1C(F)(F)F` [Example 126, (S)-6-fluoro-7-(5-(methylsulfonyl)pyrimidin-2-yl)-3-(4-((6-oxo-5-(trifluoromethyl)-1,6-dihydropyridazin-4-yl)amino)pentyl)quinazolin-4(3H)-one]: 1290 nM. Next, `O=c1[nH]ncc(N[C@H](CCCn2cnc3cc(-c4cnc(C(F)(F)F)cn4)c(F)cc3c2=O)COC(F)F)c1C(F)(F)F` [Example 420, (R)-3-(5-(difluoromethoxy)-4-((6-oxo-5-(trifluoromethyl)-1,6-dihydropyridazin-4-yl)amino)pentyl)-6-fluoro-7-(5-(trifluoromethyl)pyrazin-2-yl)quinazolin-4(3H)-one]: 9.41 nM; `C[C@@H](CCCn1ccc2cc(-c3ccc(C(F)(F)F)c(N)n3)c(F)cc2c1=O)Nc1cn[nH]c(=O)c1C(F)(F)F` [Example 213]: 11.5 nM. Next, `O=c1[nH]ncc(N[C@@H](CO)CCCn2cnc3cc(-c4ncc(C(F)(F)F)cn4)c(F)cc3c2=O)c1C(F)(F)F` [Example 164, 6-fluoro-3-[(4R)-5-hydroxy-4-[[6-oxo-5-(trifluoromethyl)-1H-pyridazin-4-yl]amino]pentyl]-7-[5-(trifluoromethyl)pyrimidin-2-yl]quinazolin-4-one]: 219 nM; `C[C@@H](CC(F)(F)Cn1ccc2cc(-c3ncc(C(F)(F)F)cn3)c(F)cc2c1=O)Nc1cn[nH]c(=O)c1C(F)(F)F` [Example 89, 2-[(4S)-2,2-difluoro-4-[[6-oxo-5-(trifluoromethyl)-1H-pyridazin-4-yl]amino]pentyl]-7-fluoro-6-[5-(trifluoromethyl)pyrimidin-2-yl]isoquinolin-1-one]: 40.5 nM; `O=c1[nH]ncc(N[C@H]2CCC[C@@H](Cn3cnc4cc(-c5ncc(C(F)(F)F)c(Br)n5)c(F)cc4c3=O)C2)c1C(F)(F)F` [Example 458, 7-(4-bromo-5-(trifluoromethyl)pyrimidin-2-yl)-6-fluoro-3-(((1R,3S)-3-((6-oxo-5-(trifluoromethyl)-1,6-dihydropyridazin-4-yl)amino)cyclohexyl)methyl)quinazolin-4(3H)-one]: 2940 nM.

The record behind these values is patent US12459922B2 (Gilead Sciences, Inc., priority 2022, dated 2025).
